Results: patent US4368203A, “Antibiotics and derivatives thereof having β-lactamase inhibitory activity and production thereof” (priority 1977, dated 1983)
Converted amounts (≈) assume the structure as drawn.

How the values were obtained:
[1] = test system: Klebsiella pneumoniae K-2; assay: MIC, broth dilution method; conditions: Klebsiella pneumoniae, K2, 20 h, read-out: Minimum inhibitory concentration
Providencia sp. P-8 = assay: MIC, broth dilution method; conditions: SP.P8, 20 h, read-out: Minimum inhibitory concentration
[2] = test system: Enterobacter aerogenes E-19; assay: MIC, broth dilution method; conditions: Klebsiella aerogenes, E19, 20 h, read-out: Minimum inhibitory concentration
[3] = test system: Streptococcus pyogenes NY-5; assay: MIC, broth dilution method; conditions: Streptococcus pyogenes, NY5, 20 h, read-out: Minimum inhibitory concentration
Serratia marcescens S-18 = assay: MIC, broth dilution method; conditions: S18, 20 h, read-out: Minimum inhibitory concentration
[4] = biological target: T1, Exo-penicillinase of Bacillus licheniformis 749/C (ATCC 25972) (Bacillus licheniformis, UniProt P00808); assay: Susceptibility to beta-lactamase as enzymic substrate; format: biochemical; conditions: 15 minutes, 30° C., PS-6 3.3 μg/ml, optical density at 301 nm
T1 construct: made in house; host or cells: Bacillus licheniformis 749/C (ATCC 25972)
T1 sequence (P00808 43-307): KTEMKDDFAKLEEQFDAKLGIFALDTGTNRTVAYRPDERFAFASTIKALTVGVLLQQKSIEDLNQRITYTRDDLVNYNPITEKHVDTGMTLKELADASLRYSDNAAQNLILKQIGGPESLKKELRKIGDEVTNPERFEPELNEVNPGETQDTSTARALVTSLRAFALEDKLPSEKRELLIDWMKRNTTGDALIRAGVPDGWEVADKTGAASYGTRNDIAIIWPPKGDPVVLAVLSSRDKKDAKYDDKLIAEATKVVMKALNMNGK
Experimental: (a) Exo-penicillinase of Bacillus licheniformis 749/C (ATCC 25972). Purified by cephalexin-Sepharose 4B (Pharmacia Fine Chemicals AB) affinity column chromatography. The potency of this enzyme preparation was 16,600 units/ml. when the hydrolysis of potassium penicillin G was measured by iodometry at 30° C. in M/10, pH 6.8, phosphate buffer. One unit of penicillinase means the amount of enzyme that can hydrolyze 1 micromole of penicillin G for 60 minutes at 30° C. with a pH 6.8.
Time course of the hydrolysis was traced at 30° C. by determining the decrease in optical density at 301 nm which corresponds specifically to the concentration of antibiotic PS-6. As described in Japanese Patent Application No. 94651/77, the antibiotic PS-5 sodium salt preparation gave a E1 cm^1% value of 267.5 at the λmax of 301 nm. If this preparation contained no water of crystallization, its epsilon value would be 8560.
As 5% of the initial optical density of antibiotic PS-5 at 301 nm remained even after the complete decomposition with hydroxylamine or beta-lactamase, the differential optical density of this substrate at 301 nm was supposed to be Δε=8132. This was supposed to be applicable to the antibiotic PS-6, and the following calculation was carried out.
(a) Exo-penicillinase of Bacillus licheniformis 749/C.

Proteus vulgaris P-5 = assay: MIC, broth dilution method; conditions: Proteus vulgaris, P5, 20 h, read-out: Minimum inhibitory concentration
[5] = test system: Bacillus subtilis ATCC 6633; assay: MIC, broth dilution method; conditions: ATCC6633, 20 h, read-out: Minimum inhibitory concentration
[6] = test system: Diplococcus pneumoniae Type III; assay: MIC, broth dilution method; format: cell-based; conditions: Streptococcus pneumoniae; Table 7; no unit in the head; horse serum in the medium at 10%; read-out: Minimum inhibitory concentration

Row | Compound | MIC [1] | MIC (Providencia sp. P-8) | MIC [2] | MIC [3] | MIC (Serratia marcescens S-18) | Hydrolysis by the beta-lactamase [4] | MIC (Proteus vulgaris P-5) | MIC [5] | MIC [6]
1 | CC(=O)NCCSC1=C(C(=O)O)N2C(=O)C(C(C)C)C2C1 (stereo not drawn) [Antibiotic PS-6] | 12.5 mg/L (≈ 40 µM) | 12.5 mg/L (≈ 40 µM) | 25 mg/L (≈ 80 µM) | 0.33 mg/L (≈ 1.06 µM) | 50 mg/L (≈ 160 µM) | without a substantial hydrolysis | 25 mg/L (≈ 80 µM) | 1.34 mg/L (≈ 4.29 µM) | 
2 | CCC1C(=O)N2C(C(=O)O)=C(SC=CNC(C)=O)CC12 (stereo not drawn) [Antibiotic PS-7] |  |  |  |  |  |  |  |  | < 0.19 mg/L
